# Laboratory results as given in patent US9981940B2, “Aryl sulfide derivatives and aryl sulfoxide derivatives as acaricides and insecticides” (BAYER CROPSCIENCE AKTIENGESELLSCHAFT, priority 2013, dated 2018).
# Tests used:
# [1] = log P by HPLC (OECD Guideline 117), method [b] neutral range; type: physicochemical; conditions: HPLC; for logP[b]: method [b] neutral range; for chromatographic logP: reversed-phase C18 HPLC column, neutral range, pH 7.8
# Procedure: (§1) The log P values were determined analogously to OECD Guideline 117 (EC Directive 92/69/EEC) by HPLC (high-performance liquid chromatography) using reversed-phase columns (C 18), by the following methods:
# [b] The LC-MS determination in the neutral range is effected at pH 7.8 with 0.001 molar aqueous ammonium hydrogencarbonate solution and acetonitrile as eluents; linear gradient from 10% acetonitrile to 95% acetonitrile.
# [2] = log P by HPLC (OECD Guideline 117), method [a] acidic range; type: physicochemical; conditions: for logP[a]: HPLC, method [a] acidic range
# Procedure: as §1
# [a] The LC-MS determination in the acidic range is effected at pH 2.7 with 0.1% aqueous formic acid and acetonitrile (contains 0.1% formic acid) as eluents; linear gradient from 10% acetonitrile to 95% acetonitrile.
# Tetranychus urticae = Tetranychus urticae spray test, OP-resistant (TETRUR); type: in vivo; conditions: after 6 days
# Procedure: Tetranychus urticae—Spray Test, OP-Resistant (TETRUR)
# • Solvent: 78.0 parts by weight of acetone • 1.5 parts by weight of dimethylformamide • Emulsifier: 0.5 part by weight of alkylaryl polyglycol ether
# To produce an appropriate active ingredient formulation, 1 part by weight of active ingredient is mixed with the specified amounts of solvent and emulsifier, and the concentrate is diluted to the desired concentration with emulsifier-containing water.
# Discs of bean leaves (Phaseolus vulgaris) infested by all stages of the greenhouse red spider mite (Tetranychus urticae) are sprayed with an active ingredient formulation of the desired concentration.
# After 6 days, the efficacy in % is determined 100% means that all the spider mites have been killed; 0% means that none of the spider mites have been killed.
# [3] = reversed-phase C18 HPLC column, pH 2.7, HPLC, acidic range, pH 2.7, read-out: log P[a]
# [4] = reversed-phase C18 HPLC column, pH 2.7, HPLC method [a], acidic range, read-out: logP[a]
SMILES,logP[b] [1],logP[a] [2],also measured
Cc1cc(F)c(-n2nc(-c3cccc(F)c3)n(C3CC3)c2=O)cc1[S+]([O-])CC(F)(F)F (racemic) [Example 70],2.87,2.94,efficacy (Tetranychus urticae; application rate of 500 g/ha): 90%
Cc1cc(C)c([S+]([O-])CC(F)(F)F)cc1-n1nnn(C)c1=O (racemic) [Example 297],1.96,1.96,
N#Cc1cc(F)c(-n2nc(C(F)(F)F)oc2=O)cc1[S+]([O-])CC(F)(F)F (racemic) [Example 309],2.80,2.86,
Cc1cc(F)c(-n2nnn(-c3ccc(C(F)(F)F)cc3)c2=O)cc1[S+]([O-])CC(F)(F)F (racemic) [Example 445],3.72,3.75,
"Cc1cc(F)c(-n2nc(C(=O)O)n(C(C)C)c2=O)cc1SCC(F)(F)F [1-{2-Fluoro-4-methyl-5-[(2,2,2-trifluoroethyl)sulphanyl]phenyl}-4-isopropyl-5-oxo-4,5-dihydro-1H-1,2,4-triazole-3-carboxylic acid]",,,"chromatographic logP [2, 3]: 2.16"
Cc1ccc(SSc2cc(Br)ccc2C)cc1Br [4-Bromo-2-[(3-bromo-4-methylphenyl)disulphanyl]-1-methylbenzene],,,"chromatographic logP [1]: > 7.36; chromatographic logP [2, 3]: > 7.36"
"CC(C)n1c(Br)n[nH]c1=O [5-Bromo-4-isopropyl-2,4-dihydro-3H-1,2,4-triazol-3-one]",,,"chromatographic logP [1]: 0.83; chromatographic logP [2, 3]: 0.86"
"N#Cc1cc(F)c(-n2nc(C(F)(F)F)n(C3CC3)c2=O)cc1[S+]([O-])CC(F)(F)F (stereo not drawn) [Example 47, 4-[4-Cyclopropyl-5-oxo-3-(trifluoromethyl)-4,5-dihydro-1H-1,2,4-triazol-1-yl]-5-fluoro-2-[(2,2,2-trifluoroethyl)sulphinyl]benzonitrile]",,,"chromatographic logP [1]: 2.84; chromatographic logP [2, 4]: 2.92; chromatographic logP [2, 3]: 2.92"
COc1ccc(-n2nc(C(F)(F)F)n(C3CC3)c2=O)cc1[S+]([O-])CC(F)(F)F (stereo not drawn) [Example 53],2.93,3.03,
CC=Cc1nn(-c2cc(SCC(F)(F)F)c(C)cc2F)c(=O)n1C1CC1 [Example 81],3.49,3.55,
"COc1nn(-c2ccc(C(F)(F)F)c([S+]([O-])CC(F)(F)F)c2)c(=O)n1C (stereo not drawn) [Example 96, 5-Methoxy-4-methyl-2-{3-[(2,2,2-trifluoroethyl)sulphinyl]-4-(trifluoromethyl)phenyl}-2,4-dihydro-3H-1,2,4-triazol-3-one]",,,"chromatographic logP [1]: 2.83; chromatographic logP [2, 4]: 2.89; chromatographic logP [2, 3]: 2.89"
COc1nn(-c2ccc(C(F)(F)F)c([S+]([O-])CC(F)(F)F)c2)c(=O)n1C1CC1 (stereo not drawn) [Example 147],3.19,3.27,
Cc1ccc(-n2nc(OC3CCOC3)n(C)c2=O)cc1SCC(F)(F)F (stereo not drawn) [Example 156],3.27,3.27,
Cc1ccc(-n2nc(OC(C)C)n(C)c2=O)cc1[S+]([O-])CC(F)(F)F (stereo not drawn) [Example 163],2.80,2.87,
Cc1ccc(-n2nc(OCC(C)C)n(C)c2=O)cc1[S+]([O-])CC(F)(F)F (stereo not drawn) [Example 167],3.26,3.31,
COc1nn(-c2ccc(Br)c(SCC(F)(F)F)c2)c(=O)n1C [Example 168],3.54,3.60,
COc1nn(-c2cc([S+]([O-])CC(F)(F)F)c(Br)cc2F)c(=O)n1C (stereo not drawn) [Example 174],2.15,2.21,
O=c1n(-c2cc(SCC(F)(F)F)c(Cl)cc2F)nc(OCC(F)(F)F)n1C1CC1 [Example 186],3.89,3.96,
CCOc1nn(-c2ccc(C)c(SCC(F)(F)F)c2)c(=O)n1OC [Example 227],3.70,3.76,
"Cc1cc(F)c(-n2nn[nH]c2=O)cc1SCC(F)(F)F [Example 299, 1-{2-Fluoro-4-methyl-5-[(2,2,2-trifluoroethyl)sulphanyl]phenyl}-1,4-dihydro-5H-tetrazol-5-one]",,,"chromatographic logP [1]: 0.9; chromatographic logP [2, 4]: 2.45; chromatographic logP [2, 3]: 2.45"
N#Cc1cc(F)c(-n2nc(C(F)(F)F)oc2=O)cc1SCC(F)(F)F [Example 308],3.40,3.47,
Cc1cc(C)c(-n2ncn(Cc3ccccc3)c2=O)cc1SCC(F)(F)F [Example 373],3.47,3.55,
CCCSc1nn(-c2cc(SCC(F)(F)F)c(C)cc2F)c(=O)n1CC [Example 426],4.29,4.37,
Cc1cc(F)c(-n2nc(Br)n(Cc3ccccc3)c2=O)cc1[S+]([O-])CC(F)(F)F (stereo not drawn) [Example 443],3.00,3.08,
"Cc1cc(F)c(NC(=S)NCC(F)(F)F)cc1[S+]([O-])CC(F)(F)F (stereo not drawn) [IIb-1, 1-{2-Fluoro-4-methyl-5-[(2,2,2-trifluoroethyl)sulphinyl]phenyl}-3-(2,2,2-trifluoroethyl)thiourea]",,,"chromatographic logP [1]: 2.3; chromatographic logP [2, 3]: 2.34"
"Nc1cc(SCC(F)(F)F)c(Br)cc1F [IVa-14, 4-Bromo-2-fluoro-5-[(2,2,2-trifluoroethyl)sulphanyl]aniline]",,,"chromatographic logP [1]: 3.12; chromatographic logP [2, 3]: 3.15"
"N#Cc1cc(F)c(Br)cc1SCC(F)(F)F [VIIa-18, 4-Bromo-5-fluoro-2-[(2,2,2-trifluoroethyl)sulphanyl]benzonitrile]",,,"chromatographic logP [1]: 3.26; chromatographic logP [2, 3]: 3.32"
"N#Cc1cc(F)c(-n2nc(C(F)(F)F)n(C3CC3)c2=O)cc1F [XXIV-1, 4-[4-Cyclopropyl-5-oxo-3-(trifluoromethyl)-4,5-dihydro-1H-1,2,4-triazol-1-yl]-2,5-difluorobenzonitrile]",,,"log P[a] ([2]; pH 2.7): 2.90; chromatographic logP ([2]; pH 2.7, log P[a]): 2.91"
"COC(=O)c1nn(-c2cc(SSc3cc(-n4nc(C(=O)OC)n(C(C)C)c4=O)c(F)cc3C)c(C)cc2F)c(=O)n1C(C)C [XXVIII-1, Dimethyl 1,1′-[disulphanediylbis(6-fluoro-4-methylbenzene-3,1-diyl)]bis(4-isopropyl-5-oxo-4,5-dihydro-1H-1,2,4-triazole-3-carboxylate)]",,,"chromatographic logP [2, 3]: 4.11"

# Further lines, with some results ahead:
logP[b] [1],logP[a] [2],SMILES,also measured
1.69,1.69,Cc1cc(F)c(-n2ncn(C3CC3)c2=O)cc1[S+]([O-])CC(F)(F)F (racemic) [Example 62],efficacy (Tetranychus urticae; application rate of 100 g/ha): 100%
2.97,2.95,Cc1cc(F)c(-n2nc(C(C)(C)C)n(C3CC3)c2=O)cc1[S+]([O-])CC(F)(F)F (racemic) [Example 64],efficacy (Tetranychus urticae; application rate of 500 g/ha): 100%
2.33,2.31,Cc1cc(F)c(-n2nc(C3CC3)n(C3CC3)c2=O)cc1[S+]([O-])CC(F)(F)F (racemic) [Example 66],efficacy (Tetranychus urticae; application rate of 500 g/ha): 100%
3.49,3.54,Cc1cc(F)c(-n2nc(C(F)(F)F)n(C(C)(C)C)c2=O)cc1[S+]([O-])CC(F)(F)F (racemic) [Example 68],efficacy (Tetranychus urticae; application rate of 500 g/ha): 100%
2.88,2.94,CCCCc1nn(-c2cc([S+]([O-])CC(F)(F)F)c(C)cc2F)c(=O)n1C1CC1 (racemic) [Example 72],efficacy (Tetranychus urticae; application rate of 500 g/ha): 90%
2.25,2.31,CCOCc1nn(-c2cc([S+]([O-])CC(F)(F)F)c(C)cc2F)c(=O)n1C1CC1 (racemic) [Example 74],efficacy (Tetranychus urticae; application rate of 500 g/ha): 100%
1.97,2.03,COCCc1nn(-c2cc([S+]([O-])CC(F)(F)F)c(C)cc2F)c(=O)n1C1CC1 (racemic) [Example 76],efficacy (Tetranychus urticae; application rate of 500 g/ha): 100%
2.15,2.20,CCc1nn(-c2cc([S+]([O-])CC(F)(F)F)c(C)cc2F)c(=O)n1C1CC1 (racemic) [Example 78],efficacy (Tetranychus urticae; application rate of 500 g/ha): 100%
2.49,2.56,CCCc1nn(-c2cc([S+]([O-])CC(F)(F)F)c(C)cc2F)c(=O)n1C1CC1 (racemic) [Example 80],efficacy (Tetranychus urticae; application rate of 500 g/ha): 100%
1.97,1.98,CCc1nn(-c2cc([S+]([O-])CC(F)(F)F)c(C)cc2F)c(=O)n1-c1cccnc1 (racemic) [Example 354],
1.84,1.89,Cc1cc(F)c(-n2nc(OC3CCOC3)n(C)c2=O)cc1[S+]([O-])CC(F)(F)F (stereo not drawn) [Example 161],
2.07,2.11,CCn1c(OC)nn(-c2cc([S+]([O-])CC(F)(F)F)c(C)cc2F)c1=O (stereo not drawn) [Example 181],
2.98,3.02,COC1=CC(=O)N(c2cc(SCC(F)(F)F)c(C)cc2Cl)C1 [Example 319],
2.52,2.57,CCCOC1=CC(=O)N(c2cc([S+]([O-])CC(F)(F)F)c(C)cc2F)C1 (stereo not drawn) [Example 333],
3.05,2.94,C=CCSc1nn(-c2cc([S+]([O-])CC(F)(F)F)c(C)cc2F)c(=O)n1CC=C (stereo not drawn) [Example 432],
